# Reference: patent US12122741B2, “Therapeutic phenethylamine compositions and methods of use” (CYBIN IRL LIMITED, priority 2020, dated 2024)
# Legend:
# [1] = cited from earlier work
# [2] = molecular target: T1, serotonin 5-HT2A receptor (Mus musculus, UniProt P35363); assay: head-twitch response (HTR); assay type: in vivo, C57Bl/6J mice; settings: for HTR compared to DOI (positive control, 1 mg/kg) / HTR compared to vehicle: HTRs counted for 15 minutes, adult male mice; for model fit of data (GraphPad Prism 9): FIG. 16 legend
# T1 construct: tissue Jackson Laboratory; host or cells: living C57Bl/6J mice (whole animal, behavioural read-out)
# T1 sequence (P35363 whole entry): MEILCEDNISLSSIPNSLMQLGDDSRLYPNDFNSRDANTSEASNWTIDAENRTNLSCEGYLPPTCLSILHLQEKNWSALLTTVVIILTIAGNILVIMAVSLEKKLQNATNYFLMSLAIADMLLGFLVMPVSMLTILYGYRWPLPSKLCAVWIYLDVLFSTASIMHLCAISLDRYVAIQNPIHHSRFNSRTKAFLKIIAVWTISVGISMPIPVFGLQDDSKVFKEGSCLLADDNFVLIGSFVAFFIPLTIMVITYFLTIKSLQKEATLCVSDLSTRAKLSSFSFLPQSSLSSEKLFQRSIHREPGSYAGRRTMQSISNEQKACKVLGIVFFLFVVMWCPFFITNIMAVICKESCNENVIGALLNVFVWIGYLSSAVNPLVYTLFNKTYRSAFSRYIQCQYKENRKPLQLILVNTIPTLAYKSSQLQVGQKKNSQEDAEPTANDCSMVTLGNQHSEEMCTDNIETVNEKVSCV
# Method: The HTR assay was performed in adult, male C57Bl/6J mice, procured from the Jackson Laboratory (Bar Harbor, Maine), as previously described (Canal, C. E., and Morgan, D., 2012, Head-twitch response in rodents induced by the hallucinogen 2,5-dimethoxy-4-iodoamphetamine: a comprehensive history, a re-evaluation of mechanisms, and its utility as a model, Drug Test Anal 4, 556-576; Saraf, T. S., Felsing, D. E., Armstrong, J. L., Booth, R. G., and Canal, C. E., 2021, Evaluation of lorcaserin as an anticonvulsant in juvenile Fmr1 knockout mice, Epilepsy Res 175, 106677). Mice were housed in standard laboratory cages with ad libitum access to food and water, and were acclimated to the vivarium for at least one week prior to testing in a procedure room. On the day of testing, mice were acclimated to the procedure room in their home cages for ≥60 mi before administration of test compounds. Mice were injected subcutaneously, placed immediately thereafter in a clear, polycarbonate box (46×20×20 cm), and HTRs were counted for 15 consecutive minutes, using hand-held tally counters, by two trained observers who were blind to treatment.
# [3] = molecular target: T2, human serotonin 5-HT2A receptor (Homo sapiens, UniProt P28223); assay: radioligand competition binding, [3H]Ketanserin; settings: HEK293 membranes, [3H]Ketanserin ~1.6 nM
# T2 construct: host or cells: HEK293 (ATCC CRL-1573), transient transfection, membrane preparation
# T2 sequence (P28223 whole entry): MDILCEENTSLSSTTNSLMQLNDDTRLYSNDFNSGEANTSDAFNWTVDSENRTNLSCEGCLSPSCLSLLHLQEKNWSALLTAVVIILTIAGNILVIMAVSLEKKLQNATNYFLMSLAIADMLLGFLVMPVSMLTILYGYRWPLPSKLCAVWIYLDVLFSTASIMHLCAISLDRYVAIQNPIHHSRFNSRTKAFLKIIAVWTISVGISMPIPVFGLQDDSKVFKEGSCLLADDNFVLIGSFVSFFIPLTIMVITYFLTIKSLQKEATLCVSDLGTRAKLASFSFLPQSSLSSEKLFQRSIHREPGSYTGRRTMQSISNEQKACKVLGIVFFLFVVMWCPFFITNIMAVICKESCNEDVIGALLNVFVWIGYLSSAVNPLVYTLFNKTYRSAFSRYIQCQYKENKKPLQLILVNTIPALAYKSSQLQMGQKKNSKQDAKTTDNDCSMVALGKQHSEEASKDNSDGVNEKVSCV
# Method: Radioligand competition binding was performed as previously described (Saraf, T. S., Felsing, D. E., Armstrong, J. L., Booth, R. G., and Canal, C. E., 2021, Evaluation of lorcaserin as an anticonvulsant in juvenile Fmr1 knockout mice, Epilepsy Res 175, 106677), with minor modifications. Plasmids encoding human serotonin 5-HT2A receptor cDNA were procured from the cDNA Resource Center. Human embryonic kidney cells (HEK293, ATCC CRL-1573) were grown in a cell incubator in 100 mm dishes with antibiotic-free Dulbecco's modified Eagle's medium containing 10% fetal bovine serum. Cells were transfected at ˜85% confluency with […] cDNA using TransIT-2020 reagent (Mirus Bio, Madison, Wisconsin). After approximately 48 hours, cell membrane was collected via centrifugation. For all experiments, serotonin (5-HT) hydrochloride was used as a positive control, and mianserin hydrochloride (10 μM) was used to define non-specific binding. Each cell membrane homogenate expressing 5-HT2A receptors was incubated in 96-well plates with [^3H]Ketanserin (PerkinElmer, Waltham, Massachusetts), ˜1.6 nM (its Kd at human 5-HT2A receptors), in the absence or presence of test compounds in a buffer. Following equilibration, each sample was filtered rapidly under vacuum through fiberglass filters presoaked in a buffer and rinsed several times with an ice-cold buffer using a cell harvester. Filters were soaked with scintillation fluid, and counts per minute were detected using photodetectors. IC50 values were computed using nonlinear, least squares regression analyses and then converted to Ki values using the Cheng-Prusoff equation (GraphPad Prism 9.0, San Diego, California).
# [4] = in vitro liver metabolism (metabolic stability); assay type: in vitro ADME; settings: rat liver microsomes, NADPH regenerating system, 0 to 60 min
# Method: In Vitro Liver Metabolism and Kinetic Deuterium Isotope Effects Compounds (10 μl of 2 μM solution) are incubated in 200 μl of medium that contains […] rat liver microsomes, NADPH regenerating system (1 mM NADP, 1 unit/ml of isocitrate dehydrogenase, 5 mM isocitric acid, 5 mM magnesium chloride), and 25 mM of phosphate buffer (pH 7.4). The reaction is terminated at different time points (0 to 60 min) by the addition of 300 μl of acetonitrile. For the analyses of products, the precipitated salts and proteins are spun out on a centrifuge, the residual solution diluted with 300 μl of water and injected into the LC/MS (Agilent 1200 system interfaced with an ABS Sciex 4000 QTRAP LC/MS/MS Mass Spectrometer). The metabolic stability may be estimated by evaluating the rate of disappearance of the main parent peak.
Structure (SMILES),activity after oral administration [1],"HTR compared to DOI (positive control, 1 mg/kg) ([2]; 3 mg/kg, subcutaneous)","HTR compared to vehicle ([2]; 3 mg/kg, subcutaneous)",model fit of data (GraphPad Prism 9) [2],activity at serotonin 5-HT2A receptors (FIG. 17) [3],difference in affinity between deuterated and non-deuterated compounds [3],"effect of deuteration of the 2,5-methoxy groups on HTR (versus Compound I-1) ([2]; 3 mg/kg, subcutaneous, 15 minutes)",half life longer than Reference Compound 2 (2C—B) [4]
COc1cc(OC)c(OC)cc1CCN [2C—O],inactive,,,,,,,
"COc1cc(SC(F)(F)F)c(OC)cc1CCN [Compound I-1, 2-(2,5-dimethoxy-4-((trifluoromethyl)thio)phenyl)ethan-1-amine]",,not statistically different from DOI,statistically different from vehicle,fit best to a two-site model,pronounced agonists,no significant differences in affinity,,
"[2H]C([2H])([2H])Oc1cc(SC(F)(F)F)c(OC([2H])([2H])[2H])cc1CCN [Compound II-10, 2-(2,5-bis(methoxy-d3)-4-((trifluoromethyl)thio)phenyl)ethan-1-amine]",,not statistically different from DOI,statistically different from vehicle,fit best to a two-site model,pronounced agonists,no significant differences in affinity,increased the HTR response,
"[2H]C([2H])([2H])Oc1cc(C([2H])([2H])C([2H])([2H])N)c(OC([2H])([2H])[2H])cc1Br [Compound II-14, 2-(4-bromo-2,5-bis(methoxy-d3)phenyl)ethan-1,1,2,2-d4-1-amine]",,,,,,,,50%
